Assay results reported in patent publication US8163732B2, “Tricyclic heteroaryl compounds useful as inhibitors of Janus kinase” (Vertex Pharmaceuticals Incorporated, priority 2005, dated 2012).

Columns and labels:
JAK-3 = target: T1, JAK-3 (Homo sapiens, UniProt P52333); assay: JAK-3 inhibition assay; type: biochemical
T1 sequence (P52333 1-1124): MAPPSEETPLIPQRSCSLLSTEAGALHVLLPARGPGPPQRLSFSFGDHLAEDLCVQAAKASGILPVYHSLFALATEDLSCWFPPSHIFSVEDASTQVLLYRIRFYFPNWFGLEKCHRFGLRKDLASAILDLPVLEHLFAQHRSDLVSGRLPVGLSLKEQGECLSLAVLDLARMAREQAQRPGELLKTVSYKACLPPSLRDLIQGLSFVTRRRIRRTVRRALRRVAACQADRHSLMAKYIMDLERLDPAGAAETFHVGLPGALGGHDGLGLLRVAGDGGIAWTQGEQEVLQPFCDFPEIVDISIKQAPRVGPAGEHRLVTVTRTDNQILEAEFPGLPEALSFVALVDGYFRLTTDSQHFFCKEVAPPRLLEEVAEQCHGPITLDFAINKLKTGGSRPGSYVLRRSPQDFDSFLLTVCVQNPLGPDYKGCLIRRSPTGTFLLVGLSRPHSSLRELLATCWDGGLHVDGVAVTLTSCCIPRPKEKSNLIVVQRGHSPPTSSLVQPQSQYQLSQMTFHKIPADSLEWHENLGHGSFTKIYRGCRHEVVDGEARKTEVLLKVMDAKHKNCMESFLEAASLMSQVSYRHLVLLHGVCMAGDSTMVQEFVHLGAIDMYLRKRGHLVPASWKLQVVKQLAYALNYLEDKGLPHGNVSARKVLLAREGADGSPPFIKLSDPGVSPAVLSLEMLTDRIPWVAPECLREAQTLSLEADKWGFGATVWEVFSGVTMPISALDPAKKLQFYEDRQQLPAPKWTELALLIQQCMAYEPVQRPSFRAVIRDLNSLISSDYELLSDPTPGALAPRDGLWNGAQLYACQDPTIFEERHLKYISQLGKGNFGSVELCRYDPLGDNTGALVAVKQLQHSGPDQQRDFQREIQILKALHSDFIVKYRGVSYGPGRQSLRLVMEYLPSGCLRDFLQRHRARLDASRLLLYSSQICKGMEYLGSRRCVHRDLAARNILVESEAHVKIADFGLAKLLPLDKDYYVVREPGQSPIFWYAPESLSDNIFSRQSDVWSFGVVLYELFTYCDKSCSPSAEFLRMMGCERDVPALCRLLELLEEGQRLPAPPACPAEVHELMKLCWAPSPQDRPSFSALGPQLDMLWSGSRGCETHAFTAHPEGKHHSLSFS
Experimental: Compounds were screened for their ability to inhibit JAK using the assay shown below. Reactions were carried out in a kinase buffer containing 100 mM HEPES (pH 7.4), 1 mM DTT, 10 mM MgCl2, 25 mM NaCl, and 0.01% BSA.
Substrate concentrations in the assay were 5 μM ATP (200 μCi/μmole ATP) and 1 μM poly(Glu)4Tyr. Reactions were carried out at 25° C. and 1 nM JAK-3.
To each well of a 96 well polycarbonate plate was added 1.5 μL of a candidate JAK-3 inhibitor along with 50 μL of kinase buffer containing 2 μM poly(Glu)4Tyr and 10 μM ATP. This was then mixed and 50 μL of kinase buffer containing 2 nM JAK-3 enzyme was added to start the reaction. After 20 minutes at room temperature (25° C.), the reaction was stopped with 50 μL of 20% trichloroacetic acid (TCA) that also contained 0.4 mM ATP. The entire contents of each well were then transferred to a 96 well glass fiber filter plate using a TomTek Cell Harvester. After washing, 60 μL of scintillation fluid was added and ^33P incorporation detected on a Perkin Elmer TopCount. After removing the mean background values for all of the data points, the data were fit using Prism software to obtain a Ki value (app).

JAK-2 = JAK-2 (Homo sapiens, UniProt O60674); assay: JAK-2 inhibition assay; type: biochemical
Sequence of JAK-2 (O60674 whole entry): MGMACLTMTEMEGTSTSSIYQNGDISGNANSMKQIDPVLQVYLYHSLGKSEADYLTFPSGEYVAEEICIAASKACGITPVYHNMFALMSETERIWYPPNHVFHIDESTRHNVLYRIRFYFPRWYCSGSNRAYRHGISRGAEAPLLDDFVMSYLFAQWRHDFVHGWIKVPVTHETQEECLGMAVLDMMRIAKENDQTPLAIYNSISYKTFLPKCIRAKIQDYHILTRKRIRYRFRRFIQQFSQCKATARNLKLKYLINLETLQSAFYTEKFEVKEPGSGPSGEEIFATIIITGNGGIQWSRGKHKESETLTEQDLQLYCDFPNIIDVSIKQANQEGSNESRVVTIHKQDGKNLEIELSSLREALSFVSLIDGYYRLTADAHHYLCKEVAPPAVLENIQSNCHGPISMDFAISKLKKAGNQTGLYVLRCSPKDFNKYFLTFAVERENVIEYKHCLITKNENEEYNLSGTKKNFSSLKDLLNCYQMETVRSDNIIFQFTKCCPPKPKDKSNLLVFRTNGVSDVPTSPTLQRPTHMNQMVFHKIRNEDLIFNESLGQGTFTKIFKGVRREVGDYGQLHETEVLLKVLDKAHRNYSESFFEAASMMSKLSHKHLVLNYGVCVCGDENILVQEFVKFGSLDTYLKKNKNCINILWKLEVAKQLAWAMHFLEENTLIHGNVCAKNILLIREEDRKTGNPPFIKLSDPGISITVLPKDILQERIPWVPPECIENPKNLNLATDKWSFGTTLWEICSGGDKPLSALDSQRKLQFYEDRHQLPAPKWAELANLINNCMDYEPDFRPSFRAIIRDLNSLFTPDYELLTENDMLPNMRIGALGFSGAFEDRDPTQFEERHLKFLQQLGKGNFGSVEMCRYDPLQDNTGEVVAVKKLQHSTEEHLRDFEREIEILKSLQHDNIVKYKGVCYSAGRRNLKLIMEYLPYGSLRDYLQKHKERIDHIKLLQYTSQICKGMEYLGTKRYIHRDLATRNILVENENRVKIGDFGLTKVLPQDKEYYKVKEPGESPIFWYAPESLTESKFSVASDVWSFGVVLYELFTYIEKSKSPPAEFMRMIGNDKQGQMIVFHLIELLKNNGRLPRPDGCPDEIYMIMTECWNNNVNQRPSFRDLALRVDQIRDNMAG

Row | SMILES | Ki (JAK-3) | Ki (JAK-2)
1 | Nc1ccc(C2Nc3ccccc3-c3ccnc4[nH]cc2c34)cc1 (stereo not shown) [Compound 93] | ≤ 250 nM | < 250 nM
2 | COc1ccccc1C1Nc2ccccc2-c2ccnc3[nH]cc1c23 (stereo not shown) [Compound 9] | 250 to 2500 nM | 250 to 2500 nM
3 | O=C(OCc1ccccc1)N1CCC(C2Nc3ccccc3-c3ccnc4[nH]cc2c34)CC1 (stereo not shown) [Compound 89] | > 2500 nM | 250 to 2500 nM
4 | Fc1ncccc1C1Nc2ccccc2-c2ccnc3[nH]cc1c23 (stereo not shown) [Compound 36] | 250 to 2500 nM | 250 to 2500 nM
5 | Fc1ccc(F)c(C2Nc3ccccc3-c3ncnc4[nH]cc2c34)c1F (stereo not shown) [Compound 56] | ≤ 250 nM | < 250 nM
6 | c1ccc(COCC2Nc3ccccc3-c3ncnc4[nH]cc2c34)cc1 (stereo not shown) [Compound 2] | > 2500 nM | > 2500 nM
7 | Oc1ccc(C2Nc3ccccc3-c3ncnc4[nH]cc2c34)c(Cl)c1 (stereo not shown) [Compound 55] | ≤ 250 nM | < 250 nM
8 | Oc1ccc(C2Nc3ccccc3-c3ncnc4[nH]cc2c34)cc1Cl (stereo not shown) [Compound 81] | ≤ 250 nM | < 250 nM
9 | COC(=O)Nc1ccc(C2Nc3ccccc3-c3ccnc4[nH]cc2c34)cc1 (stereo not shown) [Compound 99] | 250 to 2500 nM | > 2500 nM
10 | Oc1ncc(C2Nc3ccccc3-c3ccnc4[nH]cc2c34)c(O)n1 (stereo not shown) [Compound 80] | > 2500 nM | > 2500 nM
11 | Fc1cccc(F)c1C1Nc2ccccc2-c2c(Cl)cnc3[nH]cc1c23 (stereo not shown) [Compound 52] | 250 to 2500 nM | 250 to 2500 nM
12 | Fc1cc(F)cc(C2Nc3ccccc3-c3ccnc4[nH]cc2c34)c1 (stereo not shown) [Compound 28] | 250 to 2500 nM | 250 to 2500 nM
13 | Fc1cccc(F)c1C1Nc2ncccc2-c2ccnc3[nH]cc1c23 (stereo not shown) [Compound 47] | 250 to 2500 nM | 250 to 2500 nM
14 | Fc1cccc(C2Nc3ncccc3-c3ccnc4[nH]cc2c34)c1 (stereo not shown) [Compound 48] | 250 to 2500 nM | 250 to 2500 nM
15 | Oc1ccc(C2Nc3ccccc3-c3ccnc4[nH]cc2c34)c(Cl)c1 (stereo not shown) [Compound 46] | ≤ 250 nM | < 250 nM
16 | Oc1ccc(C2Nc3ccccc3-c3ccnc4[nH]cc2c34)cc1I (stereo not shown) [Compound 75] | ≤ 250 nM | < 250 nM
17 | COC(=O)c1ccc(C2Nc3ccccc3-c3ccnc4[nH]cc2c34)cc1 (stereo not shown) [Compound 87] | > 2500 nM | > 2500 nM
18 | CN(C(=O)Oc1ccc(C2Nc3ccccc3-c3ccnc4[nH]cc2c34)cc1F)c1ccccc1 (stereo not shown) [Compound 162] | 250 to 2500 nM | 250 to 2500 nM
19 | Fc1cccc(Cl)c1C1Nc2ccccc2-c2ccnc3[nH]cc1c23 (stereo not shown) [Compound 33] | 250 to 2500 nM | 250 to 2500 nM

Row | SMILES | Ki (JAK-3) | Ki (JAK-2)
20 | COc1cc(C2Nc3ccccc3-c3ccnc4[nH]cc2c34)cc(O)c1O (stereo not shown) [Compound 64] | ≤ 250 nM | < 250 nM
21 | c1cncc(C2Nc3ccccc3-c3ccnc4[nH]cc2c34)c1 (stereo not shown) [Compound 38] | 250 to 2500 nM | 250 to 2500 nM
22 | c1ccc2c(c1)NC(c1ccncc1)c1c[nH]c3nccc-2c13 (stereo not shown) [Compound 43] | > 2500 nM | 250 to 2500 nM
23 | c1ccc(C2Nc3ccccc3-c3ccnc4[nH]cc2c34)nc1 (stereo not shown) [Compound 37] | > 2500 nM | > 2500 nM
24 | Fc1cccc(C(F)(F)F)c1C1Nc2ccccc2-c2ccnc3[nH]cc1c23 (stereo not shown) [Compound 34] | 250 to 2500 nM | 250 to 2500 nM
25 | CCOC(=O)C1Nc2ccccc2-c2ccnc3[nH]cc1c23 (stereo not shown) [Compound 8] | 250 to 2500 nM | 250 to 2500 nM
26 | Fc1cc(F)c(C2Nc3ccccc3-c3ccnc4[nH]cc2c34)cc1F (stereo not shown) [Compound 31] | 250 to 2500 nM | < 250 nM
27 | c1ccc2c(c1)NCc1c[nH]c3nccc-2c13 [Compound 13] | 250 to 2500 nM | 250 to 2500 nM
28 | FC(F)(F)c1ccccc1C1Nc2ccccc2-c2ccnc3[nH]cc1c23 (stereo not shown) [Compound 19] | 250 to 2500 nM | 250 to 2500 nM
29 | c1ccc2c(c1)N=C(c1ccncc1)c1c[nH]c3nccc-2c13 [Compound 44] | 250 to 2500 nM | < 250 nM
30 | Fc1ccc(C2Nc3ccccc3-c3ccnc4[nH]cc2c34)c(F)c1 (stereo not shown) [Compound 26] | 250 to 2500 nM | < 250 nM
31 | Fc1cccc(F)c1C1Nc2ccccc2-c2ccnc3[nH]cc1c23 (stereo not shown) [Compound 18] | 250 to 2500 nM | < 250 nM
32 | O=[N+]([O-])c1ccccc1C1Nc2ccccc2-c2ccnc3[nH]cc1c23 (stereo not shown) [Compound 35] | 250 to 2500 nM | 250 to 2500 nM
33 | Nc1ccc(C2=Nc3ccccc3-c3ccnc4[nH]cc2c34)cc1 [Compound 94] | ≤ 250 nM | < 250 nM
34 | Oc1ccc([C@H]2Nc3ccccc3-c3ccnc4[nH]cc2c34)c(Cl)c1 [Compound 62] | ≤ 250 nM | < 250 nM
35 | Fc1cccc(C2Nc3ccccc3-c3ncnc4[nH]cc2c34)c1 (stereo not shown) [Compound 50] | > 2500 nM | 250 to 2500 nM
36 | Clc1cccc(C2Nc3ccccc3-c3ccnc4[nH]cc2c34)c1 (stereo not shown) [Compound 40] | 250 to 2500 nM | 250 to 2500 nM
37 | COc1cc(C2Nc3ccccc3-c3ccnc4[nH]cc2c34)ccc1O (stereo not shown) [Compound 73] | ≤ 250 nM | < 250 nM

Continued, values first:

Row | Ki (JAK-3) | Ki (JAK-2) | SMILES
38 | 250 to 2500 nM | 250 to 2500 nM | O=[N+]([O-])c1cc(C2Nc3ccccc3-c3ccnc4[nH]cc2c34)ccc1O (stereo not shown) [Compound 139]
39 | ≤ 250 nM | < 250 nM | CCN(CC)CCOc1ccc(C2Nc3ccccc3-c3ccnc4[nH]cc2c34)cc1 (stereo not shown) [Compound 157]
40 | > 2500 nM | 250 to 2500 nM | c1ccc2c(c1)NC(c1ccc3nsnc3c1)c1c[nH]c3nccc-2c13 (stereo not shown) [Compound 144]
41 | 250 to 2500 nM | < 250 nM | c1ccc2c(c1)NC(c1ccc3c(c1)CCO3)c1c[nH]c3nccc-2c13 (stereo not shown) [Compound 141]
42 | ≤ 250 nM | < 250 nM | Cc1cc(O)ccc1C1Nc2ccccc2-c2ccnc3[nH]cc1c23 (stereo not shown) [Compound 133]
43 | > 2500 nM | > 2500 nM | COc1ccc(C2Nc3ccccc3-c3ccnc4[nH]cc2c34)c(OC)c1 (stereo not shown) [Compound 142]
44 | 250 to 2500 nM | < 250 nM | CCOC(=O)C1(c2ccc(OC)c(F)c2)Nc2ccccc2-c2ccnc3[nH]cc1c23 (stereo not shown) [Compound 130]
45 | ≤ 250 nM | < 250 nM | OB(O)c1ccc(C2Nc3ccccc3-c3ccnc4[nH]cc2c34)cc1 (stereo not shown) [Compound 128]
46 | > 2500 nM | > 2500 nM | c1ccc(Oc2ccc(C3Nc4ccccc4-c4ccnc5[nH]cc3c45)cc2)cc1 (stereo not shown) [Compound 147]
47 | 250 to 2500 nM | < 250 nM | O=C1NC(c2ccc(O)cc2F)c2c[nH]c3nccc(c23)-c2ccccc21 (stereo not shown) [Compound 127]
48 | ≤ 250 nM | < 250 nM | O=C1Nc2ccccc2-c2ncnc3[nH]cc(c23)C1c1ccc(O)cc1 (stereo not shown) [Compound 158]
49 | > 2500 nM | > 2500 nM | c1ccc2c(c1)NC(c1ccc(-n3cncn3)cc1)c1c[nH]c3nccc-2c13 (stereo not shown) [Compound 120]
50 | > 2500 nM | > 2500 nM | Cc1ccc(COc2ccccc2C2Nc3ccccc3-c3ccnc4[nH]cc2c34)cc1 (stereo not shown) [Compound 132]
51 | > 2500 nM | > 2500 nM | Brc1ccc(C2Nc3ccccc3-c3ccnc4[nH]cc2c34)cc1 (stereo not shown) [Compound 153]
52 | ≤ 250 nM | < 250 nM | CCCOc1ccc(C2Nc3ccccc3-c3ccnc4[nH]cc2c34)cc1 (stereo not shown) [Compound 146]
53 | ≤ 250 nM | < 250 nM | Oc1c(F)cc(C2Nc3ccccc3-c3ncnc4[nH]cc2c34)cc1F (stereo not shown) [Compound 115]
54 | 250 to 2500 nM | < 250 nM | CC(C)Oc1ccc(C2Nc3ccccc3-c3ccnc4[nH]cc2c34)cc1 (stereo not shown) [Compound 145]
55 | > 2500 nM | > 2500 nM | COC(=O)Nc1ccc(C2c3cn(C(=O)OC)c4nccc(c34)-c3ccccc3N2C(=O)OC)cc1 (stereo not shown) [Compound 101]
56 | 250 to 2500 nM | 250 to 2500 nM | Cc1cc(C2Nc3ccccc3-c3ccnc4[nH]cc2c34)sc1C (stereo not shown) [Compound 124]
